Experimental data taken from US11174252B2, “Heterocyclic compounds as kinase inhibitors” (priority 2018, dated 2021).
Where two headings read alike, the source gives them in different places.

Legend:
CDK6 = CDK6 (Homo sapiens (Human), UniProt Q00534); assay: biochemical; format: biochemical
CDK4 = CDK4 (Homo sapiens (Human), UniProt P11802); assay: In vitro kinase inhibition, luminescence (ADP-Glo) with retinoblastoma substrate; format: biochemical
MCF-7 = assay: Cancer cell proliferation assay, single agent; format: cell-based; settings: Homo sapiens
FMS kinase = FMS kinase (Homo sapiens (Human), UniProt P07333); assay: LanthaScreen kinase assay (ATP, fluorescent-PolyGT substrate, TR-FRET); format: biochemical
DU4475 = assay: Cancer cell proliferation assay, single agent; format: cell-based; settings: Homo sapiens
[1] = MCF7, MCF-7 cells, treated for 24-168 hours, read-out: IC50 (nM) MCF-7
[2] = DU-4475, read-out: IC50 (nM) DU4475
[3] = MCF7, read-out: IC50 (nM) MCF-7
[4] = DU-4475, DU4475 cells, treated for 24-168 hours, read-out: IC50 (nM) DU4475

FMS kinase, sequence (P07333 20-972): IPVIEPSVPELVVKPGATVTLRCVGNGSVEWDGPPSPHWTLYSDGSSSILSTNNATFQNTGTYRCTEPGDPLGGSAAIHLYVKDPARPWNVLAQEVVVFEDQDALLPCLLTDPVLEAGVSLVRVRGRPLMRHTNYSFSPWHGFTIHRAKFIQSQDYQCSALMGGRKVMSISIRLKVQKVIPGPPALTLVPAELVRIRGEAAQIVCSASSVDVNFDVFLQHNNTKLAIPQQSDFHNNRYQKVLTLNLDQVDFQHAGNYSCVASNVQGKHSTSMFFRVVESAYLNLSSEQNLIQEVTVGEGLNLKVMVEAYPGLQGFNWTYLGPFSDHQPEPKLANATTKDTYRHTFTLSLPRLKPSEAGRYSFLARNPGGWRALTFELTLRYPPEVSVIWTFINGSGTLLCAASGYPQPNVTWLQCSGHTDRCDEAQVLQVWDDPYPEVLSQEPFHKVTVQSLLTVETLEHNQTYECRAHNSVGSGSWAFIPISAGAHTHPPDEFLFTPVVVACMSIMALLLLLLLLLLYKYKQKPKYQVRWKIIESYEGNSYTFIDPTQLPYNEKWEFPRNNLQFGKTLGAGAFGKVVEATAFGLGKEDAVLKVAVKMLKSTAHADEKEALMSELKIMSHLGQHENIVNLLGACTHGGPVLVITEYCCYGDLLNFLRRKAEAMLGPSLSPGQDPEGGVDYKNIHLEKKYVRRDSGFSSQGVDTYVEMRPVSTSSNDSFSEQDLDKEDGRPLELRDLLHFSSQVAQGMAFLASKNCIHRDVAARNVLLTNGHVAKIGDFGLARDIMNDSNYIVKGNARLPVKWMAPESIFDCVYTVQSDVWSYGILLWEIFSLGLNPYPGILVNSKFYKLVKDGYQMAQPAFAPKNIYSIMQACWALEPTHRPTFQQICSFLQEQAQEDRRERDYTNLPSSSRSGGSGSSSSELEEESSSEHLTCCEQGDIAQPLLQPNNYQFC
CDK4, sequence (P11802 whole entry): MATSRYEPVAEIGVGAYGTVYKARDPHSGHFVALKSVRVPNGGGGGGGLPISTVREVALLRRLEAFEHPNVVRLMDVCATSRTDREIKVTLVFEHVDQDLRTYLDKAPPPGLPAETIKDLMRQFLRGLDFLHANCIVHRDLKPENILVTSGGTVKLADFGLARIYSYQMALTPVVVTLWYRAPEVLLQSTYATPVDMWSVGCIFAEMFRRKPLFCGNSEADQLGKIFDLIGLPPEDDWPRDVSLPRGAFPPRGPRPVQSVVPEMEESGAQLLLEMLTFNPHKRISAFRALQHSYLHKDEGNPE
CDK4, sequence (P24385 whole entry partner): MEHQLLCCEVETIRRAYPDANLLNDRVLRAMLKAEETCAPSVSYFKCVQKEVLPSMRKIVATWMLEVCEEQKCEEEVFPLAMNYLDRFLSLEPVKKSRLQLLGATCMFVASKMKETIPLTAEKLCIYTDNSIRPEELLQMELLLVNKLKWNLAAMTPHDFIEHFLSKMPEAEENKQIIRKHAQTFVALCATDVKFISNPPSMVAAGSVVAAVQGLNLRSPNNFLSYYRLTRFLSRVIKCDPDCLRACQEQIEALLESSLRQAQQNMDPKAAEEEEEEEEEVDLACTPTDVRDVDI

IC50 (MCF-7; [1]) | IC50 (DU4475; [4]) | Compound | IC50 (CDK6) | IC50 (CDK4) | IC50 (FMS kinase) | IC50 (DU4475; [2]) | IC50 (MCF-7; [3])
20 nM | – | CC(C)N1CCOc2c(F)cc(-c3nc(Nc4ccc5c(c4)CCC(N(C)C)C5)ncc3F)cc21 (centres unmarked) [Compound 47, N6-(5-fluoro-4-(8-fluoro-4-isopropyl-3,4-dihydro-2H-benzo[b][1,4]oxazin-6-yl)pyrimidin-2-yl)-N2,N2-dimethyl-1,2,3,4-tetrahydronaphthalene-2,6-diamine] | 4 nM | 3.5 nM | 2.5 nM | – | –
595 nM | – | CC(C)N1CCOc2c(F)cc(-c3nc(Nc4ccc(C(=O)N5CCC(O)CC5)cn4)ncc3F)cc21 [Compound 460, (6-((5-fluoro-4-(8-fluoro-4-isopropyl-3,4-dihydro-2H-benzo[b][1,4]oxazin-6-yl)pyrimidin-2-yl)amino)pyridin-3-yl)(4-hydroxypiperidin-1-yl)methanone] | 18 nM | 13 nM | > 5000 nM | – | –
13 nM | < 7 nM | CC(C)N1CCOc2c(F)cc(-c3nc(Nc4cccc(S(N)(=O)=O)c4)ncc3F)cc21 [Compound 520] | – | – | – | – | –
648 nM | 3790 nM | CC1CN(C(=O)c2ccc(Nc3ncc(F)c(-c4cc(F)c5c(c4)N(C(C)C)CCO5)n3)nc2)CC(C)O1 (centres unmarked) [Compound 511, (2,6-dimethylmorpholino)(6-((5-fluoro-4-(8-fluoro-4-isopropyl-3,4-dihydro-2H-benzo[b][1,4]oxazin-6-yl)pyrimidin-2-yl)amino)pyridin-3-yl)methanone] | – | – | – | – | –

The next lines start with the compound.

Compound | IC50 (MCF-7; [1]) | IC50 (DU4475; [4]) | IC50 (CDK6) | IC50 (CDK4) | IC50 (FMS kinase) | IC50 (DU4475; [2]) | IC50 (MCF-7; [3])
CC(C)N1CCOc2c(F)cc(-c3nc(Nc4cn(C5CCNCC5)cn4)ncc3F)cc21 [Compound 504, 5-fluoro-4-(8-fluoro-4-isopropyl-3,4-dihydro-2H-benzo[b][1,4]oxazin-6-yl)-N-(1-(piperidin-4-yl)-1H-imidazol-4-yl)pyrimidin-2-amine] | – | – | – | – | – | 4150 nM | 1940 nM
CC(C)N1CCOc2c(F)cc(-c3nc(Nc4cn(C5CCN(C)CC5)cn4)ncc3F)cc21 [Compound 496, 5-fluoro-4-(8-fluoro-4-isopropyl-3,4-dihydro-2H-benzo[b][1,4]oxazin-6-yl)-N-(1-(1-methylpiperidin-4-yl)-1H-imidazol-4-yl)pyrimidin-2-amine] | – | – | – | – | – | 3420 nM | 1450 nM
Fc1cnc(Nc2ccc(N3CCNCC3)cn2)nc1-c1cc(F)c2c(c1)NCCO2 [Compound 3, 5-fluoro-4-(8-fluoro-3,4-dihydro-2H-benzo[b][1,4]oxazin-6-yl)-N-(5 (piperazin-1-yl)pyridin-2-yl)pyrimidin-2-amine] | – | – | 5.7 nM | 3 nM | > 5000 nM | – | –
CC1CN(c2ccc(Nc3ncc(F)c(-c4cc(F)c5c(c4)N(C(C)C)CCO5)n3)nc2)CCN1 (centres unmarked) [Compound 10, 5-fluoro-4-(8-fluoro-4-isopropyl-3,4-dihydro-2H-benzo[b][1,4]oxazin-6-yl)-N-(5-(3-methylpiperazin-1-yl)pyridin-2-yl)pyrimidin-2-amine] | – | – | 2.5 nM | 4.5 nM | 570 nM | – | 280 nM
COCCN1CCN(Cc2ccc(Nc3ncc(F)c(-c4cc(F)c5c(c4)N(C(C)C)CCO5)n3)nc2)CC1 [Compound 524, 5-fluoro-4-(8-fluoro-4-isopropyl-3,4-dihydro-2H-benzo[b][1,4]oxazin-6-yl)-N-(5-((4-(2-methoxyethyl)piperazin-1-yl)methyl)pyridin-2-yl)pyrimidin-2-amine] | 332 nM | – | 7.5 nM | 3.5 nM | – | – | –
CC(C)N1CCOc2c(F)cc(-c3nc(Nc4ccc(N5CCNCC5)c(F)c4)ncc3Cl)cc21 [Compound 30, 5-chloro-N-(3-fluoro-4-(piperazin-1-yl)phenyl)-4-(8-fluoro-4-isopropyl-3,4-dihydro-2H-benzo[b][1,4]oxazin-6-yl)pyrimidin-2-amine] | – | – | 13 nM | 1 nM | 79 nM | – | 233 nM
CC1CN(C(C)C)c2cc(-c3nc(Nc4ccc(N5CCNCC5)c(F)c4)ncc3F)cc(F)c2O1 (centres unmarked) [Compound 32, 5-fluoro-N-(3-fluoro-4-(piperazin-1-yl)phenyl)-4-(8-fluoro-4-isopropyl-2-methyl-3,4-dihydro-2H-benzo[b][1,4]oxazin-6-yl)pyrimidin-2-amine] | 130 nM | – | 21 nM | 12 nM | 177 nM | – | –
CCN1CCOc2c(F)cc(-c3nc(Nc4ccc(N5CCNCC5)c(F)c4)ncc3F)cc21 [Compound 35, 4-(4-ethyl-8-fluoro-3,4-dihydro-2H-benzo[b][1,4]oxazin-6-yl)-5-fluoro-N-(3-fluoro-4-(piperazin-1-yl)phenyl)pyrimidin-2-amine] | – | – | 3 nM | 2.5 nM | 58 nM | – | 20 nM
